Measured values: patent publication US5023359A, “Use of organic salts of copper for the treatment of honeybee's parasitic diseases” (priority 1990, dated 1991)
“Also recorded” adds a separate entry of the source.

How the values were obtained:
honeybees [1] = experiment: Appetency of the honeybees (consumption of syrup in small cases, batches of 100 honeybees); type: in vivo; details: for Appetency, absolute value / Appetency, 1/1 COPPER GLUCONATE: with pollen, mean ± SD; for Appetency, absolute value: pure sugar syrup 21.13±6.31; for Appetency, 1/1 COPPER GLUCONATE: 1/1 with copper gluconate; for Appetency, RELATIVE VALUES / PURE SUGAR SYRUP, AVERAGE / Appetency, RELATIVE VALUES / PURE SUGAR SYRUP, TEST 1 / Appetency, RELATIVE VALUES / PURE SUGAR SYRUP, TEST 2: relative to pure sugar syrup; for Appetency, RELATIVE VALUES / PURE SUGAR SYRUP, AVERAGE: average of tests; for Appetency, RELATIVE VALUES / PURE SUGAR SYRUP, TEST 1: test 1 (first concentration tested); for Appetency, RELATIVE VALUES / PURE SUGAR SYRUP, TEST 2: test 2 (second concentration tested)
From the text: It should be noted that the pollen has been made available to the honeybees in a sufficient amount inside the small cases, without being admixed to the syrup. The determinations have been performed every day and the length of the vertical bars of the diagrams hereabove, are proportional to the deviation of the observed results. They evidence a clearly higher […] case of the utilization of the compounds of this invention. […] The results of these tests are gathered in Table 7 hereinafter in which the figures correspond to measures performed on honeybees placed in small cases, having pollen to their disposal, and are means expressed in microliters per honeybee and per day for N countings.

honeybees [2] = experiment: Phagoinhibitive action on food intake by the honeybees (small cases, 100 honeybees, syrup with copper sulphate); type: in vivo; details: FIG. 1; absorption in ml/bee/day vs g/l copper sulphate
From the text: The obtained results as shown under FIG. 1 have been obtained from studies carried out in the laboratory, on batches of 100 honeybees each, located in small coops called small cases (logettes) in the absence of queen bees. The feeding made available to the honeybees, is placed in a graduated tube which allows the measurement of the ingested amount every day. The experiments have been carried out simultaneously with various small cases each receiving for the feeding of the honeybees a syrup of sucrose at 2 kg for 1 l water (i.e. 66% weight/weight) containing variable amounts of copper sulphate.

Solubility in water = details: for water solubility: 20° C.
honeybees [3] = experiment: Biological activity / metabolism of honeybees and productivity of hives; details: in vivo
Varroa jacobsoni = experiment: Action against Varroa jacobsoni in full-size hives: counting of fallen/remaining Varroas, efficiency; type: in vivo; details: for FALL OF THE VARROAS: 4 hives, mean ± SD
Protocol: Each hive was provided at its lower part with a plastic plate coated with a consistent grease. Each day at the same time, the plate was discarded and the counting of the Varroas fallen on the plate, was carried out. A grid surmounting this plate avoid that the honeybees may spontaneously proceed with the discharge of the Varroas.
The results shown in FIG. 2 have been obtained following experiments performed at full size in hives containing from 20,000 to 50,000 honeybees.
2°--The efficiency of the treatment has been defined as the ratio between the number of Varroas subsiding in the various colonies of an apiary after treatment by solutions at various concentrations, and the number of Varroas contained in the control hives, these two figures have been measured after treatment with Amitraze.
This experiment has been carried out in a series of 14 hives and the result thereof are compiled in the Table 3 figuring herein after.
These experiments allow to obtain the results of Table 3 above, and were carried out in full size on a set of 14 hives.
Measurements of the falls of the Varroas have been performed, at first, every day then every three days starting from the initiation of the delivery of the syrup.
To this end, a plate coated with a consistent grease was arranged at the bottom of each hive and protected with a grid as above-mentioned, in order to allow the counting of the Varroas. The fall begins to be significative in relation to the control hives which have only been given pure sugar syrup, after absorption by the honeybees of 3 liters of syrup per hive in 10 days.
The counting of the remaining Varroas has been performed 2 days after the last delivery of syrup while submitting each hive to a treatment of shock by means of an acaricide (in these circumstances the marketed composition sold under the Tread Name AMITRAZE).
The averages and the standard deviations have been calculated for the number of performed measures corresponding to the number of hives, this figure being mentioned between hyphens following the figures of the third column in Table 3.

honeybees [4] = experiment: Lethality / noxiousness for the honeybees; details: 6.75 l of syrup per hive, 0.02 to 0.5 g/l copper gluconate
honeybees [5] = details: in vivo
Protocol: The determination of the amounts of copper inside the bodies of the honeybees is performed through atomic absorption on samples of 5 honeybees after crushing and centrifuging them, and analysis of the supernatant liquid.

honeybees [6] = experiment: Acceptance of treated syrup by honeybees in full-size hives; type: in vivo; details: syrup of sucrose 66% w/w with copper gluconate
Trehalases = experiment: Activity of trehalases in the hemolymph of honeybees after ingestion; type: in vivo; details: FIGS. 8A-8D, 9A-9B, 10B, listed as copper glyconate
From the text: (§1) These diagrams evidence the action of copper glyconate on the glycosemia of the honeybees after ingestion of increasing doses of this product.
(§2) FIG. 9A corresponds to experiments performed without administration of an inhibitor of trehalases
(§3) FIG. 9B is with administration of such an inhibitor.
(§4) FIG. 10A further evidences the variation of the glucosemia in the honeybees following the ingestion of copper glyconate.

[7] = tested on: glycosemia in the honeybees; experiment: Glycosemia / glucose in the hemolymph of honeybees after ingestion; type: in vivo; details: FIGS. 8A-8D, 9A-9B, 10A
From the text: as §1, §2, §3, §4

Compound | Appetency, absolute value (honeybees [1]; 0,44 M.M.) | Appetency, absolute value (honeybees [1]; 1,1 M.M.) | Appetency, 1/1 COPPER GLUCONATE (honeybees [1]) | Appetency, RELATIVE VALUES / PURE SUGAR SYRUP, AVERAGE (honeybees [1]) | Appetency, RELATIVE VALUES / PURE SUGAR SYRUP, TEST 1 (honeybees [1]) | Appetency, RELATIVE VALUES / PURE SUGAR SYRUP, TEST 2 (honeybees [1]) | supplemental effects: production of honey, activity of cleaning the hives (honeybees [3]) | other results
NCC(=O)[O-].NCC(=O)[O-].[Cu+2] [Copper glycinate] | 16,65 ± 5,01 microliters per honeybee and p | 15,5 ± 5,03 microliters per honeybee and p | 14,30 ± 3,52 microliters per honeybee and p | 75,85% | 78,0% | 73,7% |  | 
CC(O)C(=O)[O-].CC(O)C(=O)[O-].[Cu+2] (stereo not drawn) [Copper lactate] | 15,30 ± 4,24 microliters per honeybee and p | 15,60 ± 4,34 microliters per honeybee and p | 10,95 ± 3,54 microliters per honeybee and p | 73,6% | 72,4% | 73,8% |  | 
O=S(=O)([O-])[O-].[Cu+2] [copper sulphate] |  |  |  |  |  |  |  | phagoinhibitive (anorectic) action on food intake (honeybees [2]): phagoinhibitive action
COPPER CITRATE | 14,71 ± 4,25 microliters per honeybee and p | 12,67 ± 3,96 microliters per honeybee and p | 12,67 ± 3,96 microliters per honeybee and p | 64,75% | 69,5% | 60,0% |  | 
Copper 1-aspartate |  |  |  | 55,1% | 76,5% | 69,4% |  | Appetency, absolute value (honeybees [1]; 0,61 M.M.): 17,96 ± 7,20 microliters per honeybee and p; Appetency, absolute value (honeybees [1]; 1,54 M.M.): 14,68 ± 5,40 microliters per honeybee and p; Appetency, absolute value (honeybees [1]; 2,4 M.M.): 12,49 ± 5,11 microliters per honeybee and p
Copper 1-glutamate | 16,18 ± 4,66 microliters per honeybee and p | 16,64 ± 7,97 microliters per honeybee and p | 11,56 ± 6,32 microliters per honeybee and p | 77,6% | 76,5% | 78,7% |  | 
Copper Asparaginate | 15,48 ± 4,32 microliters per honeybee and p | 11,97 ± 3,34 microliters per honeybee and p | 12,21 ± 4,29 microliters per honeybee and p | 65,0% | 73,2% | 56,3% |  | water solubility (Solubility in water): 0,5%
Copper glucoheptonate | 15,68 ± 2,35 microliters per honeybee and p | 14,58 ± 3,16 microliters per honeybee and p | 14,90 ± 3,64 microliters per honeybee and p | 71,6% | 74,2% | 69,0% | A similar effect has been shown | water solubility (in words) (Solubility in water): very soluble
Copper gluconate | 22,3 ± 2,5 microliters per honeybee and p | 21,2 ± 2,6 microliters per honeybee and p |  |  |  |  | increases the production of honey | FALL OF THE VARROAS (Varroa jacobsoni; 0,2 g/l copper gluconate in syrup): 165,5 ± 84,1; FALL OF THE VARROAS (Varroa jacobsoni; 0,5 g/l copper gluconate in syrup): 207 ± 172; FALL OF THE VARROAS (Varroa jacobsoni; 1 g/l copper gluconate in syrup): 109 ± 141; destroying of the Varroas (in words) (Varroa jacobsoni; in vivo): efficient even at low doses; syrup absorbed per hive when fall of Varroas begins to be significative vs control hives (Varroa jacobsoni; per hive, in 10 days): 3 L; percentage of lethality in the honeybees compared to controls (honeybees [4]): no increase in the percentage of lethality in the honeybees; storage of copper inside the body of the honeybees (honeybees [5]): does not incur any storage of copper inside the body of the honeybees; ingestion of the syrup by the honeybees in hives (honeybees [6]): The whole amount of syrup made available to the honeybees was absorbed every day; also recorded: totally ingested; appetency of the honeybees (in words) (honeybees [1]; sucrose syrup 66% w/w, FIGS. 7A-7C, comparison with copper sulphate): great appentency of the honeybees; activity / concentration of trehalases in the hemolymph (Trehalases): increase of the activity of the Trehalases; also recorded: increase in the concentration of glucose and trehalases in the hemolymph; supplemental effects: production of honey, activity of cleaning the hives (honeybees [3]; listed as copper glyconate): increase in the activity of cleaning the hives; glycosemia / concentration of glucose in the hemolymph of the honeybees [7]: a momentaneous and significative increase of the glycosemia in the honeybees; glycosemia / concentration of glucose in the hemolymph of the honeybees ([7]; listed as copper glyconate): increase in the concentration of glucose
Copper gluconate/glucoheptonate |  |  |  |  |  |  | A similar effect has been shown | 
Copper gluconate/glutamate |  |  |  |  |  |  | A similar effect has been shown | 
Copper isoleucinate |  |  |  | 71,55% | 78,9% | 64,2% |  | water solubility (Solubility in water): 1%; Appetency, absolute value (honeybees [1]; 0,61 M.M.): 16,69 ± 5,03 microliters per honeybee and p; Appetency, absolute value (honeybees [1]; 1,54 M.M.): 13,57 ± 5,77 microliters per honeybee and p; Appetency, absolute value (honeybees [1]; 2,4 M.M.): 13,79 ± 5,73 microliters per honeybee and p
Copper leucinate | 15,83 ± 4,53 microliters per honeybee and p | 13,02 ± 2,42 microliters per honeybee and p | 13,02 ± 2,42 microliters per honeybee and p | 67,8% | 74,0% | 61,6% |  | water solubility (Solubility in water): 1%
